PMC11802874, “The hypolipidemic effect of MI-883, the combined CAR agonist/ PXR antagonist, in diet-induced hypercholesterolemia model” (Nature Communications, 2025)
Where “and” joins values, the source holds several entries; their conditions need not be identical. Equal entries are not always repeated. Entries after “also recorded” stand apart in the source; their conditions may differ.

Experiments:
[1] = system: humanized PXR-CAR-CYP3A4/3A7 mice, ileum; assay: RT-qPCR and Western blotting of ileum samples (HFD/HCD studies); format: in vivo, mouse; settings: for Npc1l1 mRNA (RT-qPCR ileum): FigS14a
From the text: Specific TaqMan probes were used to analyze ileal samples, following the protocol described in Supplementary Table S3.
Western blotting experiments have been performed in BioRad instruments with BioRad precasted gels and reagents. Antibodies are listed in Supplementary Table S4. Densitometry has been done using ChemiDoc™ MP Imaging System and software (BioRad, Hercules, USA). Data are presented as relative protein expression to control samples. For protein expression quantification, areas in histograms have been calculated and related to a reference protein.

[2] = system: PXB-mouse humanized liver mice (human hepatocytes); assay: PXB-mouse humanized liver mice study; format: in vivo; set-up: key to BW: body weight in g; Cho / CHO in LDL / CHO in HDL / CHO in VLDL / CHO in Chylom / TG / TG in LDL / TG in HDL / TG in VLDL / TG in Chylo / rel LW: unit not given here
Method: PXB-mouse® are mice with background genotype: cDNA-uPAwild/+/SCID [cDNA-uPAwild/+: B6;129SvEv-Plau, SCID: C.B-17/Icr-scid /scid Jcl]. Mice contain human hepatocytes with an estimated replacement index of 70% or more in the liver, which is calculated based on the blood concentration of human albumin (h-Alb). Human hepatocytes for the experiment were obtained from BD195 (Corning Incorporated, Tewksbury, MA, USA).
Male mice (n = 5 per group) were used for the experiments with the following characteristics: 19 to 23 weeks old on Day 0, body weights on Day 0 (19.3 to 22.3 g), and blood h-Alb Level (from 9.1 to 15.0 mg/mL).
MI-883 was applied in the following vehicle: corn oil (90%)/DMSO (5%)/PEG30 (5%) formulation of MI-883 2.5 mg/kg (1.5 mL) to treated animals. The same vehicle was used in the control group. MI-883 was applied via p.o. gavage using disposable plastic sondes (Fuchigami Kikai Co., Kyoto, Japan) at the dose of 2.5 mg/kg every day ([…] -day 0-Day 7).
The target volume of blood (200 μL) was collected from all subject animals under isoflurane anesthesia via the retro-orbital plexus/sinus using calibrated pipettes (Drummond Scientific Company, PA, USA) at each time point after 4 h of fasting. Isoflurane inhalation solution was also used at the terminal blood sampling. The livers were snap-frozen in two or more pieces in one tube in liquid nitrogen. These frozen liver samples were stored at −80 °C. Urine was directly collected from the urinary bladder using a syringe. Bile was directly collected from the gallbladder using a syringe.
Serum h-ALT1 concentration was determined based on an Enzyme-Linked ImmunoSorbent Assay (ELISA) developed by the Institute of Immunology Co., Ltd (Tokyo, Japan) (for details see Supplementary, Chapter 11).
The clinical chemistry analyzer (BioMajestyTM Series JCA-BM6050, JEOL Ltd., Tokyo, Japan) was used to measure the blood h-Alb. LipoSEARCH to determine the serum level of total cholesterol, triglyceride, chylomicron, VLDL, LDL, and HDL was performed by SkyLight Biotech (Akita, Japan). Serum h-ALT1 concentration was determined based on an Enzyme-Linked ImmunoSorbent Assay (ELISA) developed by the Institute of Immunology Co., Ltd. (Tokyo, Japan). SpectraMax® ABS Plus Microplate Readers (Molecular Devices LLC, San Jose, CA, USA) were used for this measurement.

[3] = system: FXR, LXRα, LXRβ, THα, GRα, PPARα, PPARδ/β, PPARγ, AhR, VD, ERα, ERβ, mouse Car; assay: Nuclear receptor luciferase reporter panel (statements on the whole panel); format: cell-based
From the text: (see Supplementary Chapter 7).
Thank you for the insightful question and comment. We have corrected the sentence to read:
Thank you for the idea. Yes, we conducted luciferase reporter assays in antagonistic "mode" for several nuclear receptors using their prototype ligands in the revised manuscript (Figure R7).
This information is included in the Supplementary Information.
Treatment with 5 and 10 µM
(1 picture or pasted object on this page, not shown here) […]
nM dexamethasone, 10 µM GW3965 (LXRα agonist), and 10 µM estradiol. Data are presented as a […]

[4] = biological target: aryl hydrocarbon receptor (AhR) (Homo sapiens, UniProt P35869); assay: Luciferase reporter gene assay AhR (p1A1-luc), HepG2
aryl hydrocarbon receptor (AhR), sequence (P35869 11-848): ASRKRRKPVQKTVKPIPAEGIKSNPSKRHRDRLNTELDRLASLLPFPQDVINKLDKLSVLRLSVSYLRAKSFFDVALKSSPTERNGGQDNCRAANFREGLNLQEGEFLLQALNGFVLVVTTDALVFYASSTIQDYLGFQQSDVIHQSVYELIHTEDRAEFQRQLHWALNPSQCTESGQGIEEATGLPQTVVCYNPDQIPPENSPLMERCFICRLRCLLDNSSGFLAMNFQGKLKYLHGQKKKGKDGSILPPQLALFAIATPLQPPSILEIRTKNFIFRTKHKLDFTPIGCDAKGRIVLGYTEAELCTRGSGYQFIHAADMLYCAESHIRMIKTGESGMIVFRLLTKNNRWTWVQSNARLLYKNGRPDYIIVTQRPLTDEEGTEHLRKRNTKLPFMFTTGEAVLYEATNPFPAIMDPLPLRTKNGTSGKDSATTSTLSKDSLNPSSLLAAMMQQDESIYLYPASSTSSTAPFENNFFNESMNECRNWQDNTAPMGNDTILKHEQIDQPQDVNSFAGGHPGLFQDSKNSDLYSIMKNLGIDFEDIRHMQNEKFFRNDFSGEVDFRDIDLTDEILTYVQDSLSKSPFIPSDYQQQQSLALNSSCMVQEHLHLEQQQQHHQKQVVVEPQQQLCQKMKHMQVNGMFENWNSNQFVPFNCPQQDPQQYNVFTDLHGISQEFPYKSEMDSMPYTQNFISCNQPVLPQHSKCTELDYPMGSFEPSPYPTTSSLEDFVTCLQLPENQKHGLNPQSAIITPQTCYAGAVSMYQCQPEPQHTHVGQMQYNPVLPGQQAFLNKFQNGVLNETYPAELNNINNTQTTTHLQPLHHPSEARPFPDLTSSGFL
From the text: The luciferase reporter gene assays for FXR, LXRα, LXRβ, THα, GRα, PPARα, PPARδ/β, PPARγ, AhR, VD, ERα, ERβ and mouse Car are described in our recent paper[19]
Gal4-LBD constructs of tested nuclear receptors have been used together with pGL4.31[luc2P/GAL4UAS/Hygro] luciferase reporter construct and pRL-TK Renilla expression vector (both from Promega, Hercules, USA) in HepG2 cells transfected with Lipofectamine 2000 or 3000 reagents. For GRα and FXR receptors, full-length expression vectors have been used with pGRE-luc or pFXRE-luc luciferase constructs. For the aryl hydrocarbon receptor (AhR), p1A1-luc construct was used with only pRL-TK vector for transfection normalization. A dual reporter assay (Promega, Hercules, USA) was used to analyze both firefly and Renilla luciferase activities.
Gal4-LBD constructs of tested nuclear receptors have been used together with pGL5-luc luciferase reporter construct and pRL-TK Renilla expression vector in HepG2 cells transfected with Lipofectamine 2000 or 3000 reagents. For GRα and FXR receptors, full-length expression vectors have been used with pGRE-luc or pFXRE-luc luciferase constructs. For the aryl hydrocarbon receptor (AhR), p1A1-luc construct was used with only pRL-TK vector for transfection normalization. […] Bars represent means±S.D. (n=3).

[5] = FigS14b, ileum, individual animals, relative to vehicle
[6] = 2.5 mg/kg per day, one week, n = 5
[7] = FigS15, humanized liver mice, individual animals
[8] = FigS15, plasma total, individual animals
[9] = FigS15, plasma, individual animals
[10] = FigS17, individual animals, relative to control
[11] = humanized Liver mice, human gene, relative to control, individual animals
[12] = humanized Liver mice, mouse gene, relative to control, individual animals

NC(=O)c1cc(Cn2cc(-c3c(-c4ccc(Cl)cc4)nc4cc(F)ccn34)nn2)ccc1Cl [MI-883, 2-chloro-5-((4-(2-(4-chlorophenyl)-7-fluoroimidazo[1,2-a]pyridin-3-yl)-1H-1,2,3-triazol-1-yl)methyl)benzamide]
Npc1l1 mRNA (RT-qPCR ileum) ([1]; HCD, ileum, individual animals, relative to vehicle): 0.6886 and 0.6208 and 0.503 and 1.313 and 0.759 and 0.8325
Npc1l1 mRNA (RT-qPCR ileum) ([1]; HFD, ileum, individual animals, relative to vehicle): 1.357 and 1.364 and 0.9665 and 1.432
Abcg5 mRNA (RT-qPCR ileum) [1, 5]: 1.01 and 0.5455 and 0.4999 and 1.367 and 0.6847 and 1.339
Abcg8 mRNA (RT-qPCR ileum) [1, 5]: 0.9573 and 0.7781 and 0.4243 and 1.303 and 0.6152 and 1.193
Fgf15 mRNA (RT-qPCR ileum) ([1]; FigS14c, HCD, ileum, individual animals, relative to vehicle): 0.6669 and 0.9092 and 0.1811 and 0.1054 and 2.113 and 1.33
Fgf15 mRNA (RT-qPCR ileum) ([1]; FigS14c, HFD, ileum, individual animals, relative to vehicle): 0.03638 and 0.6965 and 4.34 and 0.01802
Shp mRNA (RT-qPCR ileum) ([1]; FigS14c, ileum, individual animals, relative to vehicle): 1.017 and 0.2256 and 0.2775 and 0.6923 and 3.416 and 0.8457
Asbt protein in the mouse ileum ([1]; HFD study): significantly decreased
ileum Cyp2b6 i, individual animals ([1]; HFD study, relative to control): 4.346 and 14.7968 and 1.588 and 2.908 and 3.922 and 0.8524
ileum Mrp4 i, individual animals ([1]; HFD study, relative to control): 0.275 and 0.7792 and 1.874 and 1.502 and 1.969 and 1.209
ileum Slc10a2 i, individual animals ([1]; HFD study, relative to control): 0.08727 and 0.1129 and 0.7704 and 0.8835 and 0.4948
ileum Slc51a i, individual animals ([1]; HFD study, relative to control): 0.2127 and 0.5386 and 0.8471 and 0.8796 and 0.7946 and 0.7965
ileum Slc51b i, individual animals ([1]; HFD study, relative to control): 0.7174 and 1.595 and 0.9945 and 0.7427 and 0.4728 and 0.5989
ileal Npc1l1 and Abcg5/8 ([1]; Supplementary Fig. 14): did not observe any regulation
ileal Shp and Fgf15 mRNA levels ([1]; Supplementary Fig. 14): not affected
liver enlargement (LW/BW ratio) in PXB humanized liver mice ([2]; 2.5 mg/kg every day, 7 days): did not observe significant liver enlargement
proliferative biomarkers MDM2, PCNA, FOXM1 in PXB humanized liver mice ([2]; 2.5 mg/kg every day, 7 days): no significant effects
human albumin or human ALT (h-ALT1) ([2]; 2.5 mg/kg per day, one week): did not observe any increase
LDL and HDL cholesterol plasma concentrations in PXB mice [2, 6]: tendency for a decrease in LDL and an increase in HDL
total cholesterol concentration in PXB mice [2, 6]: did not reach statistical significance
BW [2, 7]: 21.1 and 21.2 and 18.9 and 21.4
rel LW [2, 7]: 12.7 and 13.9 and 18.9 and 13.7 and 15.2
h-ALT1 ([2]; FigS15, plasma biochemistry, individual animals): 32.4 and 23.1 and 36 and 38.8 and 27.9
Cho [2, 8]: 59.5 and 63.3 and 87.8 and 100.6 and 69.3
TG [2, 8]: 79.5 and 114.8 and 91.5 and 67.5 and 118.2
CHO in Chylom [2, 9]: 0.4 and 0.8 and 0.7 and 0.6
CHO in HDL [2, 9]: 16 and 14.3 and 11.7 and 8 and 13.8
CHO in LDL [2, 9]: 26.1 and 26.5 and 51.9 and 65.5 and 32.2
CHO in VLDL [2, 9]: 17 and 21.7 and 23.6 and 26.5 and 22.7
TG in Chylo [2, 9]: 2.6 and 5 and 3.9 and 2.5 and 3.5
TG in HDL [2, 9]: 3.2 and 3.7 and 4.2 and 3.6 and 4.3
TG in LDL [2, 9]: 30.8 and 34.5 and 34.1 and 36.7 and 34
TG in VLDL [2, 9]: 43 and 71.6 and 49.3 and 24.6 and 76.4
ABCC4 mRNA (RT-qPCR in humanized liver mice) [2, 10]: 1.98 and 1.27 and 2.64 and 0.98 and 0.66
CYP2B6 mRNA (RT-qPCR in humanized liver mice) [2, 10]: 7.04 and 2.86 and 13.89 and 12.41 and 7.61
CYP3A4 mRNA (RT-qPCR in humanized liver mice) [2, 10]: 0.35 and 0.63 and 1.62 and 10.03 and 6.65
HMGCR1 mRNA (RT-qPCR in humanized liver mice) [2, 10]: 0.23 and 0.46 and 0.39 and 0.62 and 1.11
HMGCS2 mRNA (RT-qPCR in humanized liver mice) [2, 10]: 3.19 and 1.63 and 2.91 and 2.97 and 2.16
LDLR mRNA (RT-qPCR in humanized liver mice) [2, 10]: 1.63 and 0.66 and 1.69 and 2.23 and 2.34
SREBF1 mRNA (RT-qPCR in humanized liver mice) [2, 10]: 0.27 and 0.47 and 0.58 and 0.76 and 1.32
UGT1A1 mRNA (RT-qPCR in humanized liver mice) [2, 10]: 3.46 and 1.67 and 5.52 and 2.7 and 2.14
CYP2B6 mRNA in PXB humanized mice ([2]; Supplementary Fig. 17): upregulation
CYP3A4 mRNA in PXB humanized mice ([2]; Supplementary Fig. 17): have not significantly changed; also recorded: not statistically significant induction
Foxm1 RT-qPCR (Fig. 7d) [2, 11]: 1.35 and 2.21 and 1.02 and 0.71 and 2.23
MKI67 RT-qPCR (Fig. 7d) [2, 11]: 0.96 and 0.82 and 1.24 and 0.52 and 0.59
Foxm1 RT-qPCR (Fig. 7d) [2, 12]: 0.92 and 1.07 and 0.75 and 0.53 and 0.33
Mki67 RT-qPCR (Fig. 7d) [2, 12]: 1.24 and 0.62 and 1.46 and 0.36 and 0.17
interactions with other tested nuclear receptors (agonist mode) ([3]; 10 µM, 24 h, HepG2): no other interactions
inhibition of other nuclear receptors, antagonistic mode (FXR, THα, AhR, PPARα, PPARγ, GR, LXRα) ([3]; 5 and 10 μM with prototype ligands): not inhibit the other nuclear receptors
NRs assays: AhR (relative to ctrl, replicates) [4]: 0.69 and 0.85 and 0.64
